Experimental data taken from patent US20180221463A1, “Modified NK Cells and Uses Thereof” (priority 2017, published 2018).

What was measured:
[1] = target: T1, SMAD3 (Homo sapiens, UniProt P84022); test: Blockade of Smad3 in NK-92 cells under TGF-β1: E4BP4 and IFN-γ levels; assay type: cell-based; details: high TGF-β1 (5 ng/ml), SIS3 5 μM
T1 construct: NK-92 cells were pretreated with SIS3 at various concentrations for 2 hours; endogenous in cells; host or cells: NK-92 (human NK cell line)
Experimental: To reveal the regulatory role of SMAD3 and E4BP4 in the production of IFN-γ in NK-92 cells, a specific inhibitor of SMAD3 known as SIS3 (Sigma) was used in this study. Briefly, NK-92 cells were pretreated with SIS3 at various concentrations for 2 hours. The cells were then treated with TGF-β1 at the final concentration of 5 ng/ml for 45 min and harvested for detection of the phosphorylation level of SMAD3 with western blot. The dosage of SIS3 that induced the maximum effect of phosphorylation inhibition of SMAD3 was determined as the optimal dosage of SIS3 used in further experiment. NK-92 cells were then pretreated with or without SIS3 at the determined concentration for 2 hours followed by stimulation with TGF-β1 at the final concentration of 5 ng/ml for 12 hours. The cells were harvested to detect the level of E4BP4 and IFN-γ.

[2] = system: SMAD3; test: SMAD3 knockdown in NK-92 cells, real-time PCR and western blot; assay type: cell-based, human
Experimental: NK-92 cells were transduced with rLV-hSMAD3 and selected with puromycin (InvivoGen). Briefly, NK-92 cells were seeded in a 24-well plate at a density of 1×10^6/ml and mixed with ploybrene (Santa Cruz) at final concentration of 5 ug/ml and rLV-hSmad3 at MOI (multiplicity of infection) equal to 50 overnight at 37° C. The transduced cells were then expanded in complete medium and selected with puromycin at a final concentration of 2 ug/ml. The expression level of SMAD3 in the puromycin resistant clone was determined by real-time PCR with corresponding primers (Table 2) and Western blot analysis with rabbit anti human SMAD3 antibody (Abcam) respectively.
Total RNA from cells was isolated using the PureLink™ RNA Mini kit (Life Technologies) according to the manufacturer's instruction. The reverse transcription reaction was conducted with C1000 thermal cycler. The cDNA was then diluted with 40 ul RNase-free water and used as the template in real-time polymerase chain reaction.

T1 sequence (P84022 whole entry): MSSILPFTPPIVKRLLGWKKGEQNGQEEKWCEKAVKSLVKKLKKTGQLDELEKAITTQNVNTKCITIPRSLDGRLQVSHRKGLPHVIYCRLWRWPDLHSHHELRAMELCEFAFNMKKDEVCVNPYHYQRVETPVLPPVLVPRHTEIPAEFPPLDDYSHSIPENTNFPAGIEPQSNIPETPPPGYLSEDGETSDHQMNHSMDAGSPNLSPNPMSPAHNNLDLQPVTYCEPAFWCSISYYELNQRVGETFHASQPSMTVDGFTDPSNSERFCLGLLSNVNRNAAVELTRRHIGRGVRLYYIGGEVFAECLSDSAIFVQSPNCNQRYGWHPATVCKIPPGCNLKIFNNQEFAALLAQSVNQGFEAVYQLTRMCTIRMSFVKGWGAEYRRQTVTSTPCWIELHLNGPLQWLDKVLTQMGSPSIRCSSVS

| Compound | expressions of E4BP4 mRNA and protein [1] | production of IFN-γ [1] | mRNA expression of SMAD3 ([2]; real-time PCR) | decrease in SMAD3 protein ([2]; western blot) |
| --- | --- | --- | --- | --- |
| COc1cc2c(cc1OC)CN(C(=O)/C=C/c1c(-c3ccccc3)n(C)c3ncccc13)CC2 [SIS3] | markedly increase | markedly increase | – | – |
| shRNA-hSmad3: shRNA specifically against human SMAD3 mRNA, sequence GGAGAAATGGTGCGAGAAG (Table 3), delivered by lentivirus (shRNA hairpin; lentiviral delivery) | – | – | largely down-regulated | more than 70% |
